The source of these data is patent US11840521B2, “Modulators of Mas-related G-protein receptor X4 and related products and methods” (Escient Pharmaceuticals, Inc., priority 2019, dated 2023).

MRGPRX4, sequence (Q96LA9 whole entry): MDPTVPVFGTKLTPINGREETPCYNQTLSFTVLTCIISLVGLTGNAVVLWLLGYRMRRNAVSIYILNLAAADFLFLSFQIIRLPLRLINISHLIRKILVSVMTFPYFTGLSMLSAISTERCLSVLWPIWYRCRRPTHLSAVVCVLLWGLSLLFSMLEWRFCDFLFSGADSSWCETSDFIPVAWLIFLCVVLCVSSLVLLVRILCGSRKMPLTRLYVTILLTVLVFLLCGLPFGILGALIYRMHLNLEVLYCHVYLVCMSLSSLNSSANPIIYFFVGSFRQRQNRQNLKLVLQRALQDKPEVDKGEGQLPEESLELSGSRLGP

One experiment has as its target MRGPRX4 (Homo sapiens, UniProt Q96LA9). Put plainly: MRGPR X4 antagonist activity, IP-One Gq HTRF assay in stably transfected HEK cells (versus agonist bilirubin, deoxycholic acid, conjugated bilirubin, urobilin, obeticholic acid or BAR502). Also noted: expressed in transfected cells; host or cells: HEK cells, stably transfected. To be noted: read-out: IC50 (10 μM BAR502) nM; MRGPRX4 antagonists versus 10 μM BAR502 agonist. In kind it is cell-based. Here is the method: HEK cells stably transfected to express human MRGPR X4 were maintained in an incubator at 37° C. with 5% CO2 and grown in DMEM media with 10% fetal bovine serum (FBS) and 1% each of sodium pyruvate, Glutamax, penicillin/streptomycin, and Geneticin. HEK cells stably transfected to express mouse MRGPR A1 were maintained in the same incubator and grown in DMEM media with 10% FBS, 1% each of sodium pyruvate, Glutamax, penicillin/streptomycin, Geneticin, and 2.2 mg/mL Hygromycin.
Cells were plated in a 384-well assay plate at 20,000 cells per well in 12 μL of Opti-MEM and kept in an incubator overnight. On the day of the assay, compounds solubilized at 10 mM in DMSO were added as a 10-point curve (10 uM final top concentration with 1:3 serial dilutions) using a Tecan D300E digital dispenser. […] Final concentrations of DMSO were kept consistent across the plate. Plates were incubated in the dark for 1 h at 37° C. and then for 30 minutes at room temperature. IP-1 standards and HTRF detection reagents were added according to the IP-One—Gq Kit purchased from Cisbio (part number 62IPAPEJ) and incubated in the dark for 1 h at room temperature. The plate was read on a Molecular Devices SpectraMax iD5 plate reader. The HTRF ratio was calculated from the raw data and graphed using GraphPad Prism to calculate an IC50 value for each compound.
In general terms: TR-FRET usually uses a lanthanide donor and a delayed reading to cut background.
Regarding `O=C(O)c1cccc(COc2ccc(Cl)cc2C(F)(F)F)n1` [Compound 1-31], the IC50 stood at 11 nM.

The same experiment, now with this note: versus 10 μM Bilirubin agonist; HEK cells expressing human MRGPR X4; read-out: MRGPR4 Antagonist Activity.
Turning to `O=C(O)c1cccc(COc2ccc3sccc3c2Cl)c1F` [Compound 4-26], the IC50 was less than 100 nM.

Regarding `Cc1ccc(OCc2cccc(C(=O)O)c2)c(C)c1F` [Compound 1-60], the IC50 was in the range of 500 to 1000 nM.

Take `N#Cc1ccc(OCc2cccc(C(=O)O)c2)cc1Cl` [Compound 1-90]: the IC50 lay in the range of 100 to 500 nM.

Take `O=C(NCc1ccccc1)c1cccc(COc2ccc(C(F)(F)F)cc2Cl)c1` [Compound 52-1, N-benzyl-3-((2-chloro-4-(trifluoromethyl)phenoxy)methyl)benzamide]: the IC50 is 100 to 500 nM.

With `COC(=O)c1ccc(COc2ccc(Cl)cc2Cl)s1` [Compound 1-14], the IC50 is 1000 to 2500 nM.

`Cc1cc(OCc2cccc(C(=O)O)c2)ccc1C(F)(F)F` [Compound 1-138]: the IC50 was more than 2500 nM.

With `N#Cc1c(COc2ccc(Cl)cc2Cl)cccc1C(=O)O` [Compound 4-6], the IC50 lay within 100 to 500 nM.

As to `COC(=O)c1cccc(COc2ccc(Cl)cc2C(F)(F)F)n1` [Compound 1-10], the IC50 is 500 to 1000 nM.

As to `O=C(O)c1cccc(COc2ccc(Cl)c(Cl)c2)c1` [Compound 3-6], the IC50 is 100 to 500 nM.

Consider `O=C(O)c1cccc(COCc2ccc(Cl)cc2Cl)c1` [Compound 3-8], for which the IC50 is 1000 to 2500 nM.

Turning to `O=C(O)c1cccc(COc2ccc(C(F)F)cc2)c1` [Compound 33-2], the IC50 was 100 to 500 nM.

As for `O=C(O)c1cccc(COc2ccc(C(F)(F)F)cn2)c1` [Compound 10-1, 3-(((5-(trifluoromethyl)pyridin-2-yl)oxy)methyl)benzoic acid], the IC50 lay in the range of 1000 to 2500 nM.

Regarding `Cc1ccc(OCc2cccc(C(=O)O)c2)c(C)c1` [Compound 3-7], the IC50 was in the range of 1000 to 2500 nM.

In the case of `N#Cc1cccc(COc2ccc(Cl)cc2Cl)c1` [Compound 3-1], the IC50 lay within 500 to 1000 nM.

With `COc1c(COc2ccc(Cl)cc2Cl)cccc1C(=O)O` [Compound 6-1, 3-((2,4-dichlorophenoxy)methyl)-2-methoxybenzoic acid], the IC50 lay in the range of 1000 to 2500 nM.

On to `O=C(O)c1cccc(COc2cccc(-c3ccccc3)c2)c1` [Compound 3-3], for which the IC50 fell in the range of 1000 to 2500 nM.

For `CN(C)c1cc(COc2ccc(C(F)(F)F)cc2Cl)cc(C(=O)O)c1` [Compound 38-1, 3-((2-chloro-4-(trifluoromethyl)phenoxy)methyl)-5-(dimethylamino)benzoic acid], the IC50 fell in the range of 100 to 500 nM.

For the compound `O=C(O)c1cccc(COc2ccc(C(F)(F)F)cc2Br)c1` [Compound 1-120], the IC50 was less than 100 nM.

Take `O=C(O)c1cccc(COc2ccc(C(F)(F)F)c(Cl)c2)c1F` [Compound 4-15]: the IC50 is less than 100 nM.

`O=C(O)c1cccc(COc2ccc(Cl)cc2C(F)(F)F)n1` [Compound 1-31]: the IC50 was less than 100 nM.

As to `O=C(O)c1cccc(COc2ccc3ccncc3c2)c1` [Compound 1-98], the IC50 is 500 to 1000 nM.

Turning to `O=C(NCCS(=O)(=O)O)c1ccc(COc2ccc(C(F)(F)F)cc2Cl)cc1` [Compound 52-5], the IC50 lay in the range of 100 to 500 nM.

For `O=C(c1cccc(COc2ccc(C(F)(F)F)cc2Cl)c1)N1CCOC1` [Compound 52-25], the IC50 fell in the range of 500 to 1000 nM.

`COc1cccc(OCc2cccc(C(=O)O)c2)c1` [Compound 1-39]: the IC50 fell in the range of 100 to 500 nM.

As to `O=C(O)c1ccc(COc2ccc(Cl)cc2Cl)s1` [Compound 1-43], the IC50 was 500 to 1000 nM.

With `CCOc1ccc(OCc2cccc(C(=O)O)c2)cc1` [Compound 1-45], the IC50 lay within 1000 to 2500 nM.

Take `FC(F)(F)Oc1ccc(OCc2cccc(-c3nnn[nH]3)c2)c(Cl)c1` [Compound 17-8]: the IC50 is less than 100 nM.

As for `O=C(O)c1cccc(COc2ccc(Cl)cc2C(F)(F)F)c1` [Compound 1-28], the IC50 lay in the range of 100 to 500 nM.

`O=C(O)c1cc(COc2ccc(C(F)(F)F)cc2Cl)cc(C2CC2)c1` [Compound 11-1, 3-((2-chloro-4-(trifluoromethyl)phenoxy)methyl)-5-cyclopropylbenzoic acid]: the IC50 was less than 100 nM.

With `CC(C)c1ccccc1OCc1cccc(C(=O)O)c1` [Compound 1-146], the IC50 was more than 2500 nM.

On to `Cc1c(OCc2cccc(C(=O)O)c2)ccc2c1OCC2=O` [Compound 1-154], for which the IC50 is 100 to 500 nM.

`COC(=O)c1cccc(COc2ccc(C(F)(F)F)cc2Cl)c1F` [Compound 1-117]: the IC50 fell in the range of 500 to 1000 nM.

Consider `Cc1cc(OCc2cccc(C(=O)O)c2)ccc1C#N` [Compound 1-145], for which the IC50 lay in the range of 100 to 500 nM.

Regarding `N#Cc1ccc(OCc2cccc(C(=O)O)c2)c(Cl)c1` [Compound 1-35], the IC50 was in the range of 100 to 500 nM.

As to `O=C(O)c1cccc(COc2cc(Cl)ccc2Cl)c1` [Compound 1-19], the IC50 was 1000 to 2500 nM.

As to `O=C(c1cccc(COc2ccc(C(F)(F)F)cc2Cl)c1)N1CC(O)C1` [Compound 52-18], the IC50 was in the range of 500 to 1000 nM.

Turning to `Cc1cc(OCc2cccc(C(=O)O)c2)ccc1OC(F)(F)F` [Compound 1-139], the IC50 is more than 2500 nM.

For `COCCNC(=O)c1cccc(COc2ccc(C(F)(F)F)cc2Cl)c1` [Compound 52-9], the IC50 is 500 to 1000 nM.

In the case of `O=C(O)c1nc(COc2ccc(C(F)(F)F)c(Cl)c2)ccc1F` [Compound 4-19], the IC50 is less than 100 nM.

As for `O=C(O)c1cccc(COc2ccc(C(F)F)cc2F)c1` [Compound 33-4], the IC50 fell in the range of 100 to 500 nM.

Turning to `CCc1cc(COc2ccc(Cl)c(Cl)c2Cl)nc(C(=O)O)c1` [Compound 42-2], the IC50 is less than 100 nM.

With `CCc1cc(COc2ccc3ccccc3c2)nc(C(=O)O)c1` [Compound 42-1, 4-ethyl-6-((naphthalen-2-yloxy)methyl)picolinic acid], the IC50 is less than 100 nM.

As for `Nc1cccc(COc2ccc(C(F)(F)F)cc2Cl)c1` [Compound 65-1, 3-((2-chloro-4-(trifluoromethyl)phenoxy)methyl)aniline], the IC50 lay within 500 to 1000 nM.

For the compound `O=C(O)c1cccc(COc2cccc(Br)c2Cl)c1` [Compound 1-142], the IC50 lay within 100 to 500 nM.

For the compound `CNC(=O)c1cccc(COc2ccc(C(F)(F)F)cc2Cl)c1` [Compound 52-26], the IC50 was 100 to 500 nM.

For the compound `FC(F)(F)c1ccc(OCc2ccc(-c3nnn[nH]3)cc2)c(Cl)c1` [Compound 17-12], the IC50 was 500 to 1000 nM.

In the case of `O=C(N[C@@H](Cc1c[nH]cn1)C(=O)O)c1cccc(COc2ccc(C(F)(F)F)cc2Cl)c1` [Compound 55-2], the IC50 lay in the range of 500 to 1000 nM.

Take `O=C(O)c1cccc(COc2cc(Cl)cc(Cl)c2)c1` [Compound 3-9]: the IC50 is 1000 to 2500 nM.

`FC(F)c1cccc(COc2ccc(C(F)(F)F)cc2Cl)c1` [Compound 50-1, 2-chloro-1-((3-(difluoromethyl)benzyl)oxy)-4-(trifluoromethyl)benzene]: the IC50 was in the range of 1000 to 2500 nM.

As to `O=C(O)c1cccc(COc2ccc3sccc3c2)c1` [Compound 1-134], the IC50 fell in the range of 100 to 500 nM.

Take `O=C(O)c1cc(F)cc(COc2ccc3ccccc3c2)c1` [Compound 9-3]: the IC50 was less than 100 nM.

For `C[C@@H](O)[C@H](NC(=O)c1cccc(COc2ccc(C(F)(F)F)cc2Cl)c1)C(=O)O` [Compound 54-8], the IC50 was in the range of 500 to 1000 nM.

In the case of `O=C(O)c1cccc(COc2ccc(-c3ccccc3)cc2)c1` [Compound 1-81], the IC50 was more than 2500 nM.

Turning to `O=C(O)c1cccc(COc2cccc3ccccc23)c1` [Compound 1-49], the IC50 was in the range of 500 to 1000 nM.

With `O=C(O)c1cccc(COc2ccc(OC(F)(F)F)c(Cl)c2)n1` [Compound 1-129], the IC50 was less than 100 nM.

On to `COC(=O)c1cccc(COc2ccc(C#N)cc2Cl)c1` [Compound 1-3], for which the IC50 was in the range of 1000 to 2500 nM.

In the case of `O=C(O)c1cccc(COc2ccc(Cl)cc2)c1` [Compound 1-21], the IC50 was 100 to 500 nM.

As to `FC(F)(F)c1ccc(OCc2cccc(-c3nc[nH]n3)c2)c(Cl)c1` [Compound 45-2, 3-(3-((2-chloro-4-(trifluoromethyl)phenoxy)methyl)phenyl)-1H-1,2,4-triazole], the IC50 was in the range of 500 to 1000 nM.

Take `CC(C)[C@H](NC(=O)c1cccc(COc2ccc(C(F)(F)F)cc2Cl)c1)C(=O)O` [Compound 54-1, (3-((2-chloro-4-(trifluoromethyl)phenoxy)methyl)benzoyl)-L-valine]: the IC50 fell in the range of 100 to 500 nM.

For `COc1ccc(COc2ccc(Cl)cc2Cl)cc1C(=O)O` [Compound 1-32], the IC50 lay within 1000 to 2500 nM.

For `COCCCNC(=O)c1cccc(COc2ccc(C(F)(F)F)cc2Cl)c1` [Compound 52-13], the IC50 is less than 100 nM.

Regarding `O=C(O)c1cccc(COc2cccc3c2CCCC3=O)c1` [Compound 1-87], the IC50 lay in the range of 1000 to 2500 nM.

For the compound `CNCc1cccc(COc2ccc(C(F)(F)F)cc2Cl)c1` [Compound 63-1, 1-(3-((2-chloro-4-(trifluoromethyl)phenoxy)methyl)phenyl)-N-methylmethanamine], the IC50 lay in the range of 100 to 500 nM.

The experiment is the same for the next values; noted with them: versus 10 μM Bilirubin agonist; read-out: IC50 (Bilirubin agonist).
Consider `O=C(O)c1cccc(COc2ccc(Cl)cc2C(F)(F)F)n1` [Compound 1-31], for which the IC50 came to 10 nM.

The experiment is the same for the next values; noted with them: versus 20 μM deoxycholic acid; read-out: IC50 (Deoxycholic Acid agonist).
As to `O=C(O)c1cccc(COc2ccc(Cl)cc2C(F)(F)F)n1` [Compound 1-31], the IC50 turned out to be 5 nM.

Staying with this experiment, now noted: versus 20 μM obeticholic acid; read-out: IC50 (Obeticholic Acid Agonist).
With `O=C(O)c1cccc(COc2ccc(Cl)cc2C(F)(F)F)n1` [Compound 1-31], the IC50 was 5 nM.

Still in this experiment, the particulars now being: versus 50 μM urobilin; read-out: IC50 (Urobilin Agonist).
For `O=C(O)c1cccc(COc2ccc(Cl)cc2C(F)(F)F)n1` [Compound 1-31], the IC50 turned out to be 7 nM.

The same experiment, now with this note: versus 100 μM conjugated bilirubin; read-out: IC50 (Conjugated Bilirubin Agonist).
For `O=C(O)c1cccc(COc2ccc(Cl)cc2C(F)(F)F)n1` [Compound 1-31], the IC50 was 9 nM.
